Reference: patent US9914932B2, “Agrobacterium-mediated transformation of lipomyces” (Battelle Memorial Institute, priority 2014, dated 2018)

Key:
[1] = system: parent Lipomyces strains (Y-); assay: Hygromycin resistance of parent Lipomyces cells, 1/10 series dilutions on YPD agar plates; assay type: cell-based, Lipomyces sp.; details: 10 or 25 mg/l hygromycin B with 250 mg/L cefotaxime, FIG. 10
Protocol: The hygromycin resistance of parent and transformed Lipomyces cells in a 1/10 series dilutions were compared on the same YPD agar plates with either 10 or 25 mg/l hygromycin B (hyg10 or hyg25, respectively) and 250 mg/L cefotaxime. […] The integration of pTef1-hph transgene expression cassette (FIG. 11A) was also confirmed by Southern blotting analysis which indicated 1 to 2 copies of the gene were inserted (FIG. 11B).

[2] = system: L. lipofer (NRRL Y-11555); assay: Antibiotic growth suppression on SC medium agar plates; assay type: cell-based, Lipomyces lipofer; details: 100 mg/l, 30° C., FIG. 3
From the text: (§1) For effective selection of transgene expression in Lipomyces strains, several antibiotics were chosen to examine their effects on Lipomyces growth on yeast synthetic complete (SC, Sunrise Science Products, San Diego, Calif.) and yeast extract-peptone-detrose (YPD) medium plates, which included phosphinothricin ammonium (basta), geneticin (G418), hygromycin B (hyg), pyrithiamine and Zeocin (Zeo). Two day old Lipomyces cells grown in YPD liquid culture were used for evaluation of the antibiotic selection on the agar plates of SC or YPD. The original cells were diluted sequentially in 1:10 ratio with dH2O for four times and 10 μl cells from original culture and each dilution were spotted onto the proper agar medium plates. The plates were incubated in 30° C. incubator for 3 days. The inhibition effects of selected antibiotics on the selected plate were documented with Nikon D300s SLR digital camera (Nikon Inc., Melville, N.Y.) or the stereomicroscope-Leica MZ16 (Leica Microsystems, Buffalo Grove, Ill.).
(§2) About 5 to 10 colonies of 4 day old Lipomyces strains (except L. lipofer NRRL Y-11555 that required additional 4 days growth and more colonies due to its slow growth) grown on YPD medium agar plates were transferred into a 50 ml YPD liquid flask culture and grown at 30° C. and 200 rpm for 50 hrs. […]

[3] = system: all L. starkeyi strains and Lipomyces species; assay: Hygromycin B growth suppression on YPD agar plates; assay type: cell-based, Lipomyces sp.; details: 30° C., all strains and species except L. suomiensis NRRL Y-17356, FIG. 4
From the text: as §1, §2

[4] = system: L. starkeyi; assay: Antibiotic growth suppression on yeast synthetic complete (SC) medium agar plates; assay type: cell-based, Lipomyces starkeyi; details: 30° C.
From the text: as §1, §2

[5] = system: L. suomiensis strain NRRL Y-17356; assay: Hygromycin B growth suppression on YPD agar plates; assay type: cell-based, Lipomyces suomiensis; details: 30° C., L. suomiensis NRRL Y-17356, FIG. 4
From the text: as §1, §2

[6] = system: Lipomyces strains; assay: Hygromycin B inhibition on Aspergillus minimal medium; assay type: cell-based, Lipomyces sp.; details: 10 mg/l
[7] = system: L. doorenjongii (NRRL Y-27504); assay: Antibiotic growth suppression on SC medium agar plates; assay type: cell-based, Lipomyces doorenjongii; details: 100 mg/l, 30° C., FIG. 3
From the text: as §1, §2

## CN[C@H]1C[C@@H](N)[C@H](O)[C@@H](O[C@@H]2O[C@H](CO)[C@H](O)[C@@H]3OC4(O[C@H]23)O[C@H]([C@@H](N)CO)[C@H](O)[C@H](O)[C@H]4O)[C@@H]1O (some centres unmarked) [hygromycin B]
[1]
  growth of parent strains under hygromycin selection: severely suppressed
[2]
  growth suppression of L. lipofer (NRRL Y-11555): effectively suppress the growth
[3]
  concentration sufficient to suppress the growth: 2.5 mg/L
[4]; 100 mg/l hygromycin B, FIG. 2
  growth selection (growth suppression) of L. starkeyi: effective
[4]; 100 mg/l, FIG. 3
  growth suppression of three other L. starkeyi strains (NRRL Y-27493, NRRL Y-27494, NRRL Y-27495): effectively suppress the growth
[5]
  concentration needed to suppress the growth: at least 10 mg/l
[6]
  inhibition of Lipomyces strains: effective inhibition
[7]
  growth suppression of L. doorenjongii (NRRL Y-27504): effectively suppress the growth
